Values quoted from earlier work as cited in US8475827B2, “Tissue implants for implantation and methods for preparing the same” (CryoLife, Inc., priority 2010, dated 2013).

Test system: sensitive bacteria
Settings: literature review

NCC[C@H](O)C(=O)N[C@@H]1C[C@H](N)[C@@H](O[C@H]2O[C@H](CN)[C@@H](O)[C@H](O)[C@H]2O)[C@H](O)[C@H]1O[C@H]1O[C@H](CO)[C@@H](O)[C@H](N)[C@H]1O [amikacin]
minimum inhibitory concentration against sensitive bacteria (MIC) range: 0.125 to 32 µg/mL
